These results are taken from paper PMC3180999 (Journal of medicinal chemistry, 2010).

pIC50: −log10 of the molar value.

Holding throughout (type): cell-based
In one experiment the test system is LNCaP/AR cells. The experiment can be described thus: PSA expression readout in LNCaP/AR. The conditions noted are these: for activity in the hormone refractory LNCaP/AR assay: Schemes 18 and 19; for activity: hormone-refractory LNCaP/AR, Scheme 21.
For another experiment, the system named is PSA secretion. The experiment can be described thus: relative PSA level / PSA secretion assay, cell line not named. Conditions: for relative PSA expression levels: vs bicalutamide and 27 as standards, Scheme 9.
For a further experiment, the system named is AR. Nature of the experiment: luciferase reporter assay. The conditions noted are these: vs bicalutamide and 27 as standards, Scheme 8.
[1] abbreviates: vs 27 and 38 as standards, Scheme 12.

For the molecule `N#Cc1ccc(N2C(=O)C3(CCC3)N(c3ccc(O)cc3F)C2=S)cc1C(F)(F)F` [compound 90], the “activity in the hormone refractory LNCaP/AR assay” value in the experiment on LNCaP/AR cells was “good activity”.

As to `Cc1ccc(N2C(=S)N(c3ccc(C#N)c(C(F)(F)F)c3)C(=O)C23CCCC3)cc1` [compound 39, 4-(4-Oxo-2-thioxo-1-(4-methylphenyl)-1,3-diazaspiro[4.4]non-3-yl)-2-trifluoromethylbenzonitrile], the “relative PSA expression levels” value in the experiment on PSA secretion is recorded as “comparable to the dimethyl analogue 27”.

For the molecule `CNC(=O)c1ccc(N2C(=S)N(c3ccc(C#N)c(C(F)(F)F)c3)C(=O)C23CCC3)cc1` [compound 89, N-methyl-4-[7-(4-cyano-3-trifluoromethylphenyl)-8-oxo-6-thioxo-5,7-diazaspiro-[3.4]oct-5-yl]benzamide], in the experiment with LNCaP/AR cells, the “activity in the hormone refractory LNCaP/AR assay” value was “good activity”.

Take `CCC1(CC)C(=O)N(c2ccc(C)cc2)C(=S)N1c1ccc(C#N)c(C(F)(F)F)c1` [compound 37, 4-[3-(4-Methylphenyl)-5,5-diethyl-4-oxo-2-thioxoimidazolidin-1-yl]-2-trifluoromethylbenzonitrile]: in the experiment with AR, the relative luciferase activity result is recorded as “reduced activity relative to 27”. As for `N#CCCCc1ccc(N2C(=S)N(c3ccc(C#N)c(C(F)(F)F)c3)C(=O)C23CCC3)cc1` [compound 95, 4-[5-(4-(3-Cyanopropyl)phenyl)-8-oxo-6-thioxo-5,7-diazaspiro[3.4]octan-7-yl]-2-(trifluoromethyl) benzonitrile], the activity entry with LNCaP/AR cells is reported as “quite good activity compared to earlier compounds”. In the case of `CNC(=O)c1ccc(N2C(=S)N(c3ccc(C#N)c(C(F)(F)F)c3)C(=O)C2(C)C)cc1` [compound 88, 4-[3-(4-Cyano-3-trifluoromethylphenyl)-5,5-dimethyl-4-oxo-2-thioxo-imidazolidin-1-yl]-N-methylbenzamide], the “activity in the hormone refractory LNCaP/AR assay” value with LNCaP/AR cells is on record as “good activity”. As to `CCC1(C)C(=O)N(c2ccc(C)cc2)C(=S)N1c1ccc(C#N)c(C(F)(F)F)c1` (centres unmarked) [compound 36, 4-[3-(4-Methylphenyl)-5-ethyl-5-methyl-4-oxo-2-thioxoimidazolidin-1-yl]-2-trifluoromethylbenzonitrile], the relative luciferase activity entry with AR is recorded as “reduced activity relative to 27”. In turn, `N#Cc1ccc(N2C(=O)C3(CCC3)N(c3ccc(C=O)cc3)C2=S)cc1C(F)(F)F` [compound 75, 4-[5-(4-Formylphenyl)-8-oxo-6-thioxo-5,7-diazaspiro[3.4]oct-7-yl]-2-trifluoromethylbenzonitrile] had a pIC50 in the experiment with PSA secretion of 6.52 to 6.70. Regarding `Cc1ccc(N2C(=S)N(c3ccc(C#N)c(C(F)(F)F)c3)C(=N)C23CCC3)cc1` [compound 53], in the experiment with PSA secretion (setting [1]), the “relative PSA readout” value is “nearly as active as the parent compounds 27 and 38”. As for `CC1(C)C(=O)N(c2ccc(C#N)c(C(F)(F)F)c2)C(=O)N1c1ccc(O)cc1` [compound 56], the “relative PSA readout” value in the experiment on PSA secretion (setting [1]) is listed as “not as active as the parent thiohydantoin 28”. Take `CC(O)(CS(=O)(=O)c1ccc(F)cc1)C(=O)Nc1ccc(C#N)c(C(F)(F)F)c1` (centres unmarked) [bicalutamide, reference compound]: the “activity using PSA levels in vitro” value with LNCaP/AR cells (hormone refractory cell line LNCaP/AR, Scheme 17) was “inactive”. With `COC(=O)c1ccc(N2C(=S)N(c3ccc(C#N)c(C(F)(F)F)c3)C(=O)C2(C)C)cc1` [compound 87, 4-[3-(4-Cyano-3-trifluoromethylphenyl)-5,5-dimethyl-4-oxo-2-thioxo-imidazolidin-1-yl]benzoic acid methyl ester], the “activity in the hormone refractory LNCaP/AR assay” value in the experiment on LNCaP/AR cells is reported as “good activity”.

Consider `CC1(C)C(=O)N(c2ccc(C#N)c(C(F)(F)F)c2)C(=S)N1c1ccc(C(F)(F)F)cc1` [compound 52, 4-(4,4-Dimethyl-5-oxo-2-thioxo-3-(4-trifluoromethylphenyl)imidazolidin-1-yl)-2-trifluoromethylbenzonitrile], for which, in the experiment on PSA secretion (vs standards, Scheme 11), the “relative PSA readout” value is reported as “slightly more active than the methyl analogue 27”. In the experiment on PSA secretion, `N#Cc1ccc(N2C(=O)C3(CCC3)N(c3ccc(/C=C/CO)cc3)C2=S)cc1C(F)(F)F` [compound 78, (E)-4-{5-[4-(3-Hydroxy-1-propenyl)phenyl]-8-oxo-6-thioxo-5,7-diazaspiro[3.4]oct-7-yl}-2-trifluoromethylbenzonitrile] showed a pIC50 of 6.82 to 7.00. `N#Cc1ccc(N2C(=O)C3(CCC3)N(c3ccc(/C=C/C(N)=O)cc3)C2=S)cc1C(F)(F)F` [compound 77, (E)-3-{4-[7-(4-cyano-3-trifluoromethylphenyl)-8-oxo-6-thioxo-5,7-diazaspiro[3.4]oct-5-yl]-phenyl}-2-propanamide]: in the experiment on PSA secretion, the pIC50 was 6.82 to 7.00. With `CN(C)C(=O)CCCc1ccc(N2C(=S)N(c3ccc(C#N)c(C(F)(F)F)c3)C(=O)C23CCC3)cc1` [compound 94, N,N-dimethyl-4-[4-(7-(4-cyano-3-trifluoromethylphenyl)-8-oxo-6-thioxo-5,7-diazaspiro-[3.4]octan-5-yl)phenyl]butanamide], the activity entry with LNCaP/AR cells is recorded as “quite good activity compared to earlier compounds”. Same read-out and setting: in the case of `CNC(=O)c1ccc(N2C(=S)N(c3ccc(C#N)c(C(F)(F)F)c3)C(=O)C23CCCC3)cc1F` [compound 93, N-Methyl-4-[3-(4-cyano-3-trifluoromethylphenyl)-4-oxo-2-thioxo-1,3-diazaspiro[4.4]nonan-1-yl]-2-fluorobenzamide] it was “very active”. In the case of `CNC(=O)c1ccc(N2C(=S)N(c3ccc(C#N)c(C(F)(F)F)c3)C(=O)C2(C)C)cc1F` [compound 92, N-Methyl-4-[3-(4-cyano-3-trifluoromethylphenyl)-5,5-dimethyl-4-oxo-2-thioxoimidazolidin-1-yl]-2-fluorobenzamide], the “dose-response study on castration resistant LNCaP AR cells” value in the experiment on LNCaP/AR cells (Figure 9) is “a little more active than 91”. In the experiment with LNCaP/AR cells, the activity result is reported as “very active”. Consider `CS(=O)(=O)c1ccc(N2C(=S)N(c3ccc(C#N)c(C(F)(F)F)c3)C(=O)C23CCC3)cc1` [compound 86, 4-[5-(4-Methanesulfonylphenyl)-8-oxo-6-thioxo-5,7-diazaspiro[3.4]oct-7-yl]-2-trifluoromethylbenzonitrile], for which, in the experiment with LNCaP/AR cells, the “activity in the hormone refractory LNCaP/AR assay” value was “good activity”. In the experiment with PSA secretion, `CC(O)c1ccc(N2C(=S)N(c3ccc(C#N)c(C(F)(F)F)c3)C(=O)C23CCC3)cc1` (centres unmarked) [compound 76, 4-{5-[4-(1-Hydroxyethyl)phenyl]-8-oxo-6-thioxo-5,7-diazaspiro[3.4]oct-7-yl}-2-trifluoromethylbenzonitrile] gave a pIC50 of 6.52 to 6.70. On to `Cc1ccc(N2C(=S)N(c3ccc(C#N)c(C(F)(F)F)c3)C(=N)C2(C)C)cc1` [compound 54], for which the “relative PSA readout” value in the experiment with PSA secretion (setting [1]) is “nearly as active as the parent compounds 27 and 38”.

In the case of `Cc1ccc(N2C(=S)N(c3ccc(C#N)c(C(F)(F)F)c3)C(=O)C23CCN(C)CC3)cc1` [compound 43, 4-(8-Methyl-4-oxo-2-thioxo-1-(4-methylphenyl)-1,3,8-triazaspiro[4.5]dec-3-yl)-2-trifluoromethylbenzonitrile], in the experiment on PSA secretion, the “relative PSA expression levels” value is listed as “distinctly less active”. `N#Cc1ccc(N2C(=O)C3(CCC3)N(c3ccc(-c4ccccc4)cc3)C2=S)cc1C(F)(F)F` [compound 48]: the “relative PSA readout” value in the experiment on PSA secretion (vs standards, Scheme 11) is recorded as “very similar in activity to 38”.

Consider `N#Cc1ccc(N2C(=O)C3(CCC3)N(c3ccc(O)cc3)C2=S)cc1C(F)(F)F` [compound 49, 4-(8-Oxo-6-thioxo-5-(4-hydroxyphenyl)-5,7-diazaspiro[3.4]oct-7-yl)-2-trifluoromethylbenzonitrile], for which, in the experiment with PSA secretion (vs standards, Scheme 11), the “relative PSA readout” value is on record as “very similar in activity to 38”. On to `CC1(C)C(=S)N(c2ccc(C#N)c(C(F)(F)F)c2)C(=S)N1c1ccc(O)cc1` [compound 55], for which, in the experiment with PSA secretion (setting [1]), the “relative PSA readout” value is “not as active as the parent thiohydantoin 28”.
